Reference: ChEMBL document CHEMBL6087447, “Impact of Linker Composition on VHL PROTAC Cell Permeability” (J Med Chem, 2025)

Test: Permeability of the compound in PBS buffer at pH 7.4 incubated for 16 hrs by LC-MS/MS based PAMPA assay
Assay type: ADME
Settings: read-out: permeability

Row | Structure (SMILES) | Papp at 16 h
1 | Cc1ncsc1-c1ccc(CNC(=O)[C@@H]2C[C@@H](O)CN2C(=O)[C@@H](NC(=O)COCCOCCNC(=O)COc2cnc3c(C4CCN(C(=O)c5ccc(OC(F)(F)F)cc5)CC4)ncnc3c2)C(C)(C)C)cc1 | 6.3 ×10⁻⁶ cm/s
2 | Cc1ncsc1-c1ccc(CNC(=O)[C@@H]2C[C@@H](O)CN2C(=O)[C@@H](NC(=O)CN(C)CCCCCCOc2cnc3c(C4CCN(C(=O)c5ccc(OC(F)(F)F)cc5)CC4)ncnc3c2)C(C)(C)C)cc1 | 6.67 ×10⁻⁶ cm/s
3 | Cc1ncsc1-c1ccc(CNC(=O)[C@@H]2C[C@@H](O)CN2C(=O)[C@@H](NC(=O)Cc2ccc(OCCOc3cnc4c(C5CCN(C(=O)c6ccc(OC(F)(F)F)cc6)CC5)ncnc4c3)cc2)C(C)(C)C)cc1 | 7.56 ×10⁻⁶ cm/s
4 | Cc1ncsc1-c1ccc(CNC(=O)[C@@H]2C[C@@H](O)CN2C(=O)[C@@H](NC(=O)CCOCCOCCOc2cnc3c(C4CCN(C(=O)c5ccc(OC(F)(F)F)cc5)CC4)ncnc3c2)C(C)(C)C)cc1 | 5.42 ×10⁻⁶ cm/s
5 | Cc1ncsc1-c1ccc(CNC(=O)[C@@H]2C[C@@H](O)CN2C(=O)[C@@H](NC(=O)CCOCCNC(=O)COc2cnc3c(C4CCN(C(=O)c5ccc(OC(F)(F)F)cc5)CC4)ncnc3c2)C(C)(C)C)cc1 | 6.21 ×10⁻⁶ cm/s
6 | Cc1ncsc1-c1ccc(CNC(=O)[C@@H]2C[C@@H](O)CN2C(=O)[C@@H](NC(=O)Cc2ccc(OCCOc3cnc4c(C5CCN(C(=O)c6ccc(OC(F)(F)F)cc6)CC5)ncnc4c3)cn2)C(C)(C)C)cc1 | 7.28 ×10⁻⁶ cm/s
7 | Cc1ncsc1-c1ccc(CNC(=O)[C@@H]2C[C@@H](O)CN2C(=O)[C@@H](NC(=O)CN2CCC(CCCOc3cnc4c(C5CCN(C(=O)c6ccc(OC(F)(F)F)cc6)CC5)ncnc4c3)CC2)C(C)(C)C)cc1 | 6.9 ×10⁻⁶ cm/s
8 | Cc1ncsc1-c1ccc(CNC(=O)[C@@H]2C[C@@H](O)CN2C(=O)[C@@H](NC(=O)COCc2cn(CCOc3cnc4c(C5CCN(C(=O)c6ccc(OC(F)(F)F)cc6)CC5)ncnc4c3)nn2)C(C)(C)C)cc1 | 7.94 ×10⁻⁶ cm/s
9 | Cc1ncsc1-c1ccc(CNC(=O)[C@@H]2C[C@@H](O)CN2C(=O)[C@@H](NC(=O)CCCCCCCCOc2cnc3c(C4CCN(C(=O)c5ccc(OC(F)(F)F)cc5)CC4)ncnc3c2)C(C)(C)C)cc1 | 8.29 ×10⁻⁶ cm/s
